Reference: patent publication US8933016B2, “Metallodrugs having improved pharmacological properties and methods of manufacture and use thereof” (priority 2012, dated 2015)
In brackets after ≈: the same amount, converted by molar mass. Like-named read-outs stand apart in the source and are kept apart here. Ends that are not written are not given here. Peptide text beside a SMILES is read from it. * marks the point of attachment. X2 = COCCOCCOCCOCCOCCOCCOCCOCCOCCOCCOCCOCCOCCOCCOCCOCCOCCOCCOCCOCCOCCOCCOCCOCCNC(=O)CCN1C(=O)CC(*)C1=O; X1 = COCCOCCOCCOCCOCCOCCOCCOCCOCCOCCOCCOCCNC(=O)CCN1C(=O)CC(*)C1=O

Experiments:
E. coli (ATCC 25922) = experiment: Protein oxidation, quantitation of protein carbonyls in E. coli; format: cell-based; conditions: 100 mM
[1] = Cytotoxicity toward human Huh7 liver cells
[2] = tested on: E. coli O157:H7, BAA-1883 (Ec F)
[3] = tested on: S. pneumoniae, 49619 (Sp)
[4] = tested on: H. influenzae, 49247 (Hi)
[5] = tested on: A. baumanii, BAA-747 (Ab)
[6] = tested on: K. pneumonia, 700603 (Kp); format: cell-based; conditions: Mueller Hinton Broth
MRSA, 43300 = conditions: Mueller Hinton Broth
E. faecium, 700221 (Ef) = conditions: Mueller Hinton Broth
in vitro = conditions: human

Molecule: OO [H2O2, Hydrogen Peroxide]
- Protein Carbonyls (nmol/mg protein) (E. coli (ATCC 25922); 2 hours (PEP 188 table)): 0.87 nmol/mg protein
- Protein Carbonyls (nmol/mg protein) (E. coli (ATCC 25922); 2 hours, average of 2 separate experiments (PEP 189 table)): 0.44 nmol/mg protein

Molecule: CC[C@H](C)[C@H](NC(=O)[C@H](CCCCN)NC(=O)[C@H](Cc1c[nH]c2ccccc12)NC(=O)[C@H](CCCNC(=N)N)NC(=O)[C@H](CCCNC(=N)N)NC(=O)[C@H](Cc1c[nH]cn1)NC(=O)CNC(=O)CN)C(=O)N[C@H](C(=O)N[C@H](C(=O)N[C@H](C(=O)N[C@@H](CCCNC(=N)N)C(=O)N[C@@H](Cc1c[nH]c2ccccc12)C(=O)N[C@@H](CCCNC(=N)N)C(=O)N[C@@H](CCCNC(=N)N)C(=O)NCC(=O)NCC(=O)N[C@@H](CSC1CC(=O)N(CCC(=O)NCCOCCOCCOCCOCCOCCOCCOCCOCCOCCOCCOCCOCCOCCOCCOCCOCCOCCOCCOCCOCCOCCOCCOCCOC)C1=O)C(=O)O)[C@@H](C)CC)C(C)C)C(C)C (stereo partly shown) [PEP 314 PEG 24] (H-GGHRRWKIVVIRWRRGGC(X2)-OH; C-terminus assumed)
- IC50 [1]: > 200 µM
- MIC Ec F ([2]; O157:H7): 9.3 µM (≈ 31.9 µg/mL)
- MIC Sp ([3]; 49619 (Sp)): 4.7 µM (≈ 16.1 µg/mL)

Molecule: CC[C@H](C)[C@H](NC(=O)[C@H](Cc1c[nH]cn1)NC(=O)CNC(=O)CN)C(=O)N[C@@H](CC(C)C)C(=O)N1CCC[C@H]1C(=O)N[C@@H](Cc1c[nH]c2ccccc12)C(=O)N[C@@H](CCCCN)C(=O)N[C@@H](Cc1c[nH]c2ccccc12)C(=O)N1CCC[C@H]1C(=O)N[C@@H](Cc1c[nH]c2ccccc12)C(=O)N[C@@H](Cc1c[nH]c2ccccc12)C(=O)N1CCC[C@H]1C(=O)N[C@@H](Cc1c[nH]c2ccccc12)C(=O)N[C@@H](CCCNC(=N)N)C(=O)N[C@@H](CCCNC(=N)N)C(=O)NCC(=O)NCC(=O)N[C@@H](CS)C(=O)O [PEP 316, GGHILPWKWPWWPWRRGGC]
- MIC Hi [4]: 13.5 µM (≈ 32.1 µg/mL)

Molecule: CC[C@H](C)[C@H](NC(=O)[C@H](Cc1c[nH]cn1)NC(=O)CNC(=O)CN)C(=O)N[C@@H](CCCNC(=N)N)C(=O)N[C@@H](CCCNC(=N)N)C(=O)N[C@H](C(=O)N[C@H](C(=O)N[C@@H](CCCNC(=N)N)C(=O)N[C@@H](CCCCN)C(=O)N[C@H](C(=O)N[C@H](C(=O)N[C@@H](Cc1c[nH]cn1)C(=O)N[C@H](C(=O)N[C@H](C(=O)N[C@@H](CCCCN)C(=O)N[C@@H](CCCCN)C(=O)NCC(=O)NCC(=O)N[C@@H](CSC1CC(=O)N(CCC(=O)NCCOCCOCCOCCOCCOCCOCCOCCOCCOCCOCCOCCOC)C1=O)C(=O)O)[C@@H](C)CC)[C@@H](C)CC)[C@@H](C)CC)[C@@H](C)CC)[C@@H](C)CC)[C@@H](C)CC (stereo partly shown) [PEP 318 PEG 12] (H-GGHIRRIIRKIIHIIKKGGC(X1)-OH; C-terminus assumed)
- IC50 [1]: 150 µM
- MIC Ec F ([2]; O157:H7): 5.4 µM (≈ 16.1 µg/mL)
- MIC Ec (E. coli, 25922 (Ec); 25922 (Ec)): 10.7 µM (≈ 31.9 µg/mL)
- MIC Hi [4]: 2.7 µM (≈ 8.05 µg/mL)
- MIC Bc (B. cepacia, 25416 (Bc)): 2.7 µM (≈ 8.05 µg/mL)
- MIC Sp ([3]; 49619 (Sp)): 5.4 µM (≈ 16.1 µg/mL)
- MIC Ab ([5]; BAA-747): 5.4 µM (≈ 16.1 µg/mL)
- MIC Kp [6]: 21.4 µM (≈ 63.8 µg/mL)

Molecule: DOTA-Ampicillin [DOTAMP]
- MIC Ec F ([2]; Mueller Hinton Broth): 42.5 µM
- MIC Ec (E. coli, 25922 (Ec); Mueller Hinton Broth): 42.5 µM
- MIC MRSA (MRSA, 43300): 42.5 µM

Molecule: GGHGEYVLRNWRIVKVATTKAC [PEP 193]
- MIC MRSA (MRSA, 43300): 13 µM

Molecule: GGHGIRRIIRKIIHIIKKGGC [PEP 311]
- MIC Ec F ([2]; Mueller Hinton Broth): 4 µM
- MIC Ec (E. coli, 25922 (Ec); Mueller Hinton Broth): 7.9 µM
- MIC Pa (P. aeuginosa, 27583 (Pa); Mueller Hinton Broth): 15.8 µM
- MIC Ef (E. faecium, 700221 (Ef)): 4 µM
- MIC Hi [4]: 31.7 µM
- MIC Sa (S. aureus, 29213 (Sa); Mueller Hinton Broth): 7.9 µM
- MIC Sp ([3]; Mueller Hinton Broth): 15.8 µM
- MIC Ab ([5]; Mueller Hinton Broth): 2 µM
- MIC Kp [6]: 7.9 µM

Molecule: GGHGRRWKIVVIRWRRGGC [PEP 321, GGHGRRWKIVVIRWRRGGC]
- MIC Ec F ([2]; Mueller Hinton Broth): 14.2 µM
- MIC Ef (E. faecium, 700221 (Ef)): 7.1 µM
- MIC Hi [4]: 14.2 µM
- MIC MRSA (MRSA, 43300): 14.2 µM
- MIC Sp ([3]; Mueller Hinton Broth): 1.8 µM
- MIC Ab ([5]; Mueller Hinton Broth): 28.4 µM
- MIC Kp [6]: 14.2 µM

Molecule: GGHGWRWYCR [PEP 204, GGHGWRWYCR]
- MIC Ec F ([2]; Mueller Hinton Broth): 50 µM
- MIC Ec (E. coli, 25922 (Ec); Mueller Hinton Broth): 3.1 µM
- MIC Pa (P. aeuginosa, 27583 (Pa); Mueller Hinton Broth): 25 µM
- MIC Ef (E. faecium, 700221 (Ef)): 25.1 µM
- MIC MRSA (MRSA, 43300): 6.3 µM
- MIC Ab ([5]; Mueller Hinton Broth): 25.1 µM
- MIC Kp [6]: 4.7 µM

Molecule: GGHGWRWYCRGGK [PEP 323, GGHGWRWYCRGGK]
- MIC Ec (E. coli, 25922 (Ec); 25922 (Ec)): 20.9 µM
- MIC Pa (P. aeuginosa, 27583 (Pa)): 20.9 µM
- MIC Hi [4]: 1.5 µM
- MIC Ab ([5]; BAA-747): 20.9 µM
- MIC Kp [6]: 20.9 µM

Molecule: GGHIRRIIRKIIHIIKKGGC [PEP 318]
- MIC Ec (E. coli, 25922 (Ec); 25922 (Ec)): 7 µM
- IC50 (in vitro): 41 µM
- MIC Pa (P. aeuginosa, 27583 (Pa)): 28.2 µM
- MIC Sa (S. aureus, 29213 (Sa); 29213 (Sa)): 14.1 µM
- MIC Sp ([3]; 49619 (Sp)): 3.5 µM
- MIC Ab ([5]; BAA-747): 7 µM
- MIC Kp [6]: 28.2 µM

Molecule: GGHRRWKIVVIRWRRGGC [PEP 314, GGHRRWKIVVIRWRRGGC]
- MIC Ec (E. coli, 25922 (Ec); 25922 (Ec)): 14.6 µM
- IC50 (in vitro): 17 µM
- MIC Pa (P. aeuginosa, 27583 (Pa)): 14.6 µM
- MIC Hi [4]: 3.7 µM
- MIC Sa (S. aureus, 29213 (Sa); 29213 (Sa)): 29.2 µM
- MIC Sp ([3]; 49619 (Sp)): 0.9 µM
- MIC Ab ([5]; BAA-747): 7.3 µM
- MIC Kp [6]: 14.6 µM

Molecule: GGHTRQARRNRR [PEP 205, GGHTRQARRNRR]
- MIC Pa (P. aeuginosa, 27583 (Pa)): 43.7 µM

Molecule: GGHWRWYCRGGK [PEP 322, GGHWRWYCRGGK]
- MIC Hi [4]: 2.7 µM
- MIC Kp [6]: 7.6 µM
